The text below walks through data of patent US20170349532A1, “CATIONIC LIPID” (Kyowa Hakko Kirin Co., Ltd., priority 2011, published 2017).

The first data set concerns CKAP5 mRNA in MIA PaCa-2 subcutaneous tumor. The data set is described as follows: Test Example 3: in vivo mRNA knockdown evaluation in MIA PaCa-2 xenograft. More on the design: species or system SCID mouse. To be noted: Example 122 preparation with CKAP5 siRNA; 48 hours after intravenous administration, 10 mg/kg siRNA, MIAPaCa-2 xenograft mouse. On the procedure: The preparations obtained in Example 122 and 123 are subjected to an in vivo mRNA knockdown evaluation test in the following manner.
MIA PaCa-2 that is a cell line derived from human pancreas cancer is received from the JCRB Cell Bank and cultivated with high glucose-containing DMEM (manufactured by GIBCO, 11995-073) containing a 10% inactivated fetal calf serum (manufactured by GIBCO) and 1 vol % penicillin-streptomycin (manufactured by GIBCO, 26253-84) under conditions at 37° C. and 5% CO2. […] Before the administration and 48 hours after the administration, the weight of the mouse is measured. […]
With respect to the obtained tumor sample, 1 mL of a Trizol reagent (manufactured by Invitrogen, 15596-018) and zirconia beads of 5 mm are added to a 2-mL round bottom tube containing the sample charged therein, and the contents are pulverized by Tissue lyser II (manufactured by QIAGEN) under conditions of 1/25 freq, 1.5 minutes×2 times. […] A concentration of the extracted RNA is measured by a trace absorption photometer Dropsense96 (Trinean), and RNA corresponding to from 200 to 1,000 ng is subjected to reverse transfer with a Transcriptor (manufactured by Roche, 4897030). […] An mRNA amount of the specimen is calculated as a relative proportion when the mRNA amount of CKAP5 mRNA was defined as 1. […]
For `CCCCC/C=C\C/C=C\CCCCCCCC(=O)OC[C@@H]1CN(C)C[C@H]1COC(=O)CCCCCCC/C=C\C/C=C\CCCCC` (relative stereo) [Compound 110, trans-1-Methyl-3,4-bis(((9Z,12Z)-octadec-9,12-dienoyloxy)methyl)pyrrolidine], the “amount of CKAP mRNA in tumor, relative proportion” value is on record as 0.28 and the “in vivo mRNA knockdown rate” value was determined as 72%.

Test system in another data set: not listed separately
Kind of data set: Average particle diameter of preparation (Zetasizer Nano ZS). The format is physicochemical. The settings on record: Comparative Examples 1 to 8, prepared as Example 118 with apo-b siRNA. Put shortly:
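Lipid nanoparticles formed by mixing cationic lipid/PEG-DMPE Na/DSPC/cholesterol (8.947/1.059/5.708/13.697 mmol/L in 90% ethanol, 37 °C) with apo-b siRNA in Tris-EDTA/citrate buffer pH 5.0, then diluted with citrate/NaCl pH 6.0 and DPBS to 10 μM siRNA. Mean complex diameter measured by dynamic light scattering.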
For `CCCCCCCC/C=C\CCCCCCCC(=O)OCCN(C)CCOC(=O)CCCCCCC/C=C\CCCCCCCC` [Compound A-6, N-Methyl-N,N-bis(2-((Z)-1-oxooctadec-9-enyloxy)ethyl)amine, reference compound], the “average particle diameter of the complex between the cationic lipis and the nucleic acid in the preparation” value amounted to 139.5 nm.
Still for that read-out and setting: under `CCCCCCCC/C=C\CCCCCCCC(=O)OCC(C[N+](C)(C)C)OC(=O)CCCCCCC/C=C\CCCCCCCC.[Cl-]` (stereo not drawn) [Compound A-1, N(2,3-di-(9-(Z)-octadecenoyloxy))-prop-1-yl-N,N,N-trimethylammonium chloride, reference compound] stands 104.0 nm.

The data set is the same for the next values; noted with them: average particle diameter of cationic lipid/nucleic acid complex; Example 118 preparation: compound/PEG-DMPE Na/DSPC/cholesterol with apo-b siRNA.
As to `CCCCC/C=C\C/C=C\CCCCCCCC(=O)OC[C@@H]1CN(C)C[C@H]1COC(=O)CCCCCCC/C=C\C/C=C\CCCCC` (relative stereo) [Compound 110, trans-1-Methyl-3,4-bis(((9Z,12Z)-octadec-9,12-dienoyloxy)methyl)pyrrolidine], the “Particle diameter of Preparetion” value stood at 131.6 nm.
Same read-out and setting: then `CCCCC/C=C\C/C=C\CCCCCCCCO[C@H]1C[N+](C)(C)C[C@@H]1OCCCCCCCC/C=C\C/C=C\CCCCC` [Compound 52, (3S,4S)-1,1-Dimethyl-3,4-bis((9Z,12Z)-octadec-9,12-dienyloxy)pyrrolidinium chloride], with 118.9 nm; and `CCCCCCCC/C=C\CCCCCCCCOCC[N+](C)(C)CCOCCCCCCCC/C=C\CCCCCCCC.[Cl-]` [Compound 80, N,N-diMethyl-N,N-bis(2-((Z)-octadec-9-enyloxy)ethyl)aminium chloride], with 110.3 nm; and `CCCCCCCC/C=C\CCCCCCCCOCCN(CCOCCCCCCCC/C=C\CCCCCCCC)C(=O)[C@@H](N)CO` [Compound 91, (S)-2-Amino-3-hydroxy-N,N-bis(2-((Z)-octadec-9-enyloxy)ethyl)propanamido], with 125.4 nm.
Same read-out and setting: then `CCCCC/C=C\C/C=C\CCCCCCCC(=O)O[C@@H]1CN(C(=O)CN(C)C)C[C@H]1OC(=O)CCCCCCC/C=C\C/C=C\CCCCC` [Compound 26, (3R,4R)-1-(2-(Dimethylamino)acetyl)pyrrolidine-3,4-diyl di((9Z,12Z)-octadec-9,12-dienoate)], with 133.9 nm.
The same measure, in the same setting: under `CCCCC/C=C\C/C=C\CCCCCCCCO[C@@H]1CN(CCC(=O)N(C)C)C[C@H]1OCCCCCCCC/C=C\C/C=C\CCCCC` [Compound 58, 3-((3R,4R)-3,4-bis((9Z,12Z)-Octadec-9,12-dienyloxy)pyrrolidin-1-yl)-N,N-dimethylpropanamide] stands 151.8 nm; under `CCCCC/C=C\C/C=C\CCCCCCCCO[C@@H]1CN(C(=O)CCN)C[C@H]1OCCCCCCCC/C=C\C/C=C\CCCCC` [Compound 62, (3R,4R)-1-(3-Aminopropanoyl)-3,4-bis((9Z,12Z)-octadec-9,12-dienyloxy)pyrrolidine], 151.3 nm.
On to `CCCCC/C=C\C/C=C\CCCCCCCCOC[C@@H]1C[N+](C)(C)C[C@H]1COCCCCCCCC/C=C\C/C=C\CCCCC.[Cl-]` (relative stereo) [Compound 112, trans-1,1-Dimethyl-3,4-bis(((9Z,12Z)-octadec-9,12-dienyloxy)methyl)pyrrolidinium chloride], for which the “Particle diameter of Preparetion” value was determined as 119.2 nm.
The same measure, in the same setting: under `CCCCCCCC/C=C\CCCCCCCCOC[C@@H]1CNC[C@H]1COCCCCCCCC/C=C\CCCCCCCC` (relative stereo) [Compound 101, trans-3,4-bis(((Z)-Octadec-9-enyloxy)methyl)pyrrolidine] stands 148.7 nm.
Consider `CCCCC/C=C\C/C=C\CCCCCCCCO[C@H]1C[N+](C)(C)C[C@H]1OCCCCCCCC/C=C\C/C=C\CCCCC.[Cl-]` [Compound 21, (3R,4,5)-1,1-Dimethyl-3,4-bis((9Z,12Z)-octadec-9,12-dienyloxy)pyrrolidinium chloride], for which the “Particle diameter of Preparetion” value is 112.4 nm.
For the compound `CCCCCCCCCCC/C=C\CCCCCOCCN(C)CCOCCCCC/C=C\CCCCCCCCCCC` [Compound 36, N-Methyl-N,N-bis(2-((Z)-octadec-6-enyloxy)ethyl)amine], the “Particle diameter of Preparetion” value was 137.2 nm.
Turning to `CCCCCCCCCCC/C=C\CCCCCO[C@@H]1CNC[C@H]1OCCCCC/C=C\CCCCCCCCCCC` [Compound 7, (3R,4R)-3,4-bis((Z)-Octadec-6-enyloxy)pyrrolidine], the “Particle diameter of Preparetion” value was determined as 148.7 nm.
On the same count and under the same terms, then `CCCCC/C=C\C/C=C\CCCCCCCCO[C@@H]1CN(C(=O)[C@@H](N)CCCCN)C[C@H]1OCCCCCCCC/C=C\C/C=C\CCCCC` [Compound 31, (3R,4R)-1-((5)-2,6-Diaminohexanoyl)-3,4-bis((9Z,12Z)-octadec-9,12-dienyloxy)pyrrolidine], with 100.7 nm; and `CCCCCC/C=C\CCCCCCCCOCCNCCOCCCCCCCC/C=C\CCCCCC` [Compound 72, bis(2-((Z)-Hexadec-9-enyloxy)ethyl)amine], with 130.6 nm.
Same read-out and setting: under `CCCCCCCCCCCCCCCCCCO[C@@H]1CNC[C@H]1OCCCCCCCCCCCCCCCCCC` [Compound 39, (3R,4R)-3,4-bis(Octadecyloxy)pyrrolidine] stands 444.5 nm; under `CCCCCCCC/C=C\CCCCCCCCOCCN(CCOCCCCCCCC/C=C\CCCCCCCC)CC(O)CO` (stereo not drawn) [Compound 82, 3-(bis(2-((Z)-Octadec-9-enyloxy)ethyl)amino)propan-1,2-diol], 125.7 nm.
Still for that read-out and setting: under `CCCCCCCC/C=C\CCCCCCCCOCCN(CCOCCCCCCCC/C=C\CCCCCCCC)C(=O)[C@@H](N)CCCCN` [Compound 94, (S)-2,6-Diamino-N,N-bis(2-((Z)-octadec-9-enyloxy)ethyl)hexanamido] stands 137.3 nm; under `CCCCCCCC/C=C\CCCCCCCCOCCN(CCOCCCCCCCC/C=C\CCCCCCCC)C(=O)CN(C)C` [Compound 89, 2-(Dimethylamino)-N,N-bis(2-((Z)-octadec-9-enyloxy)ethyl)acetamide], 121.5 nm; under `CCCCCCCC/C=C\CCCCCCCC(=O)OC[C@@H]1C[N+](C)(C)C[C@H]1COC(=O)CCCCCCC/C=C\CCCCCCCC.[Cl-]` (relative stereo) [Compound 113, trans-1,1-Dimethyl-3,4-bis(((Z)-octadec-9-enoyloxy)methyl)pyrrolidinium chloride], 103.5 nm.
In the case of `CCCCCCCCCCCCCCOCCN(C)CCOCCCCCCCCCCCCCC` [Compound 34, N-Methyl-N,N-bis(2-(tetradecyloxy)ethyl)amine], the “Particle diameter of Preparetion” value is 165.7 nm.
